1 molecule from patent publication US20160280670A1, “NOVEL COMPOUNDS FOR REGENERATION OF TERMINALLY-DIFFERENTIATED CELLS AND TISSUES” (ACOUSIA THERAPEUTICS GMBH, priority 2013, published 2016) can be followed below.

This experiment concerns inner ear progenitor cells from the postnatal sensory organ of the mouse (differentiated sensory epithelial patches, "mini ears"). Nature of the experiment: Screening assay: EdU proliferation in differentiated inner ear progenitor sphere patches ("mini ears"). Conditions: test item 5 μM for 96 h. The class given is cell-based. The text has this: A screening assay was employed according to an experimental protocol that enables the isolation of inner ear progenitor cells from the postnatal sensory organ of the mouse preparations in vitro. These isolated progenitors generate typical spheres that express a comprehensive set of marker genes that define the early developing sensory epithelium in the progenitor cell state. Under appropriate conditions these spheres can differentiate into epithelial patches that express marker genes that are characteristic of differentiating hair cells and supporting cells as found in the native organ of Corti. These differentiated sensory epithelial patches, tagged “mini ears”, can be generated in sufficient numbers for screening purposes in a low-throughput format. For an appropriate read-out, dedifferentiation was detected with three parameters: (i) labelling of Sox2 expression (Sox2=transcription factor SRY (sex determining region Y-box 2), (ii) an increase in the incorporation of EdU indication proliferation (EdU=thymidine analogue 5-Ethynyl2′-deoxyuridine), and (iii) labelling using the hair cell marker Myosin VIIA.
Compounds were screened at a standard concentration of 5 μM. […]
For ease of comparison the number of EdU positive cells was normalized to the DMSO only condition. Thus, the proliferation activity is expressed as “fold EdU positive cells”. […]

As to `C[C@](N)(Cc1c[nH]c2ccccc12)c1nc(C(=O)NC2CCCCC2)co1.Cl` [Compound 13, (S)-2-(2-amino-1-(1H-indol-3-yl)propan-2-yl)-N-cyclohexyloxazole-4-carboxamide hydrochloride], the “Mean percentage of EdU positive cells” value (EdU for the last 5 hours, patches after 14 days differentiation) was determined as 3.59%. Besides, the “Fold EdU positive re DMSO (proliferation activity, "fold EdU positive cells")” value (number of EdU positive cells normalized to DMSO only condition, hydrochloride) is 2.04 fold.
